Measurements as given in patent US20250032460A1, “METHODS OF TREATING NEUROLOGICAL DISORDERS” (MapLight Therapeutics, Inc., priority 2021, published 2025).

Tests used:
in vivo = details: cynomolgus monkey, po
Procedure: The following example characterized the pharmacokinetics (PK) of Compound 1 in Cynomolgus Monkey following single oral (PO) Compound 1 dose administration. The compound was administered via oral gavage at 0.3 mg/kg and 1 mg/kg, formulated as solution in saline. After dosing, plasma was collected to characterize the PK profiles of Compound 1.

[1] = system: Amphetamine-Induced Hyperlocomotion; assay: Compound 1 effect on amphetamine-induced hyperlocomotion (open field); assay type: in vivo, mice; details: for average (mean) centimeters traveled over 30 minutes: open field, vehicle cohort 7500 cm
Procedure: The hyperdopaminergic state underlying LID was modeled in naïve male wild-type c57/B16 mice by administration of d-amphetamine, a drug which rapidly elevates synaptic dopamine levels.
A single dose of 3 mg/kg of intraperitoneal (IP) d-amphetamine was administered to 32 male wild-type c57/B16 mice at approximately 8-weeks of age. Subsequently, the animals were subdivided into 3 groups and co-administered either a single dose of intraperitoneal vehicle only, Compound 1 at 0.3 mg/kg, or Compound 1 at 1 mg/kg. The locomotor behavior of the animals in an open field chamber (44 cm×44 cm×20 cm dimension) was monitored using a video tracking system (Noldus EthoVision v15). Over 30 minutes, the average (mean) centimeters traveled (+standard deviation) identified were: • 7500 cm (±314.9) in vehicle cohort • 5141 cm (±805.6) in the Compound 1 0.3 mg/kg cohort ([…] one-way ANOVA followed by Tukey's multiple comparison) • 2008 cm (±406.2) in the Compound 1 1.0 mg/kg cohort (p <0.001)

salivation = assay: Single ascending dose study: salivation (pharmacodynamics); assay type: in vivo, healthy adult volunteers; details: Group 1, 1-40 mg Compound 1 (FIG. 1)
Procedure: MTD was established at the dose which produced mild to moderate cholinergic adverse effects. Cholinergic effects were monitored for each dose, including pupillometry and salivation.
(§1) Group 2 evaluated tolerability of Compound 1 at Group 1 MTD with or without fesoterodine fumarate co-administration. Subjects received 8 mg of fesoterodine fumarate tablet or matched placebo tablet 4 hours prior to administration of 40 mg of Compound 1.

MPTP-Induced Dyskinesia = assay: L-dopa-induced dyskinesia in MPTP-lesioned macaques; assay type: in vivo, cynomolgus macaques
Source text: It is now used in non-human primates to model primary parkinsonian motor symptom phenotypes and subsequent response to therapies such as L-dopa including dyskinesia-thus it can be used as foundational model for LID. See Huat 2012. (Huot P, Johnston T H, Koprich J B, Fox S H, Brotchie J M. L-DOPA pharmacokinetics in the MPTP-lesioned macaque model of Parkinson's disease. Neuropharmacology. 2012 October; 63(5):829-36.) Having both face validity and construct validity, the MPTP non-human primate model is considered the animal model of PD motor symptoms with the highest translational relevance.
A study was conducted in seven female MPTP-lesioned cynomolgus macaques that received chronic repeat treatment with L-dopa and in response manifested stable and reproducible dyskinesia that was choreic and dystonic in nature. Macaque behaviors were assessed following a single 1 mg/kg dose of Compound 1 or vehicle in combination with high-dose of L-dopa delivered as Madopar™ with a dose titrated for LID symptoms in each test animal. The ‘on time’ therapeutic effects and abnormal LID movements were assessed for 6 hours following administration of L-dopa. A single Compound 1 oral dose of 1 mg/kg or vehicle was administered at the same time as L-dopa at the start of behavioral observations. All animals received all treatments in a cross-over design with a minimum of 72 hours between repeat treatments in each animal. The therapeutic and LID behaviors were scored by trained raters supervised by a neurologist in a blinded fashion using high-definition video recordings and the non-human primate dyskinesia rating scale. See Fox 2012. (Fox S H, Johnston T H, Li Q, Brotchie J, Bezard E. A critique of available scales and presentation of the Non-Human Primate Dyskinesia Rating Scale. Mov Disord. 2012 Sep. 15; 27(11):1373-8.)

[2] = Single ascending dose study: pharmacokinetics (plasma, CSF); assay type: in vivo
Procedure: Compound 1 was administered in a single ascending dose (SAD) study conducted in approximately 54 healthy adult volunteers to investigate Compound 1 pharmacokinetics, safety, and tolerability. The study was conducted in two groups.
as §1

[3] = Post-procedure plasma exposure (salivation study); assay type: in vivo, Sprague Dawley rats; details: male, Sprague Dawley, rat, in vivo, 1.5 mg/kg, Plasma Concentration 1-Hour Post-procedure (mean value), Compound 1
Procedure: An in vivo primary pharmacology study evaluating the fesoterodine fumarate dose-response antagonistic effect on Compound 1 induced salivation in anaesthetized male Sprague Dawley rats was conducted. […] Intravenous fesoterodine doses were administered at […]. Fesoterodine was dosed 10 minutes prior to dosage of Compound 1. All animals were normal with no observed abnormality detected in clinical signs or behavior. Salivation was measured by using oral dry swab in anesthetized rats with the calculated difference between the dry swab weight and the wet swab weight indicating the weight of saliva produced. Samples were collected post-dosing for one hour at 10-minute intervals.
At the end of the study period, plasma samples were collected to measure exposure of Compound 1, fesoterodine fumarate, and fesoterodine active metabolite 5-hydroxymethyl tolterodine (5-HMT), also referred to as desfesoterodine, is summarized in Table 2.

[4] = Compound 1 1 mg/kg PO with high-dose L-dopa, vs vehicle
[5] = Group 2, 40 mg Compound 1, 8 mg fesoterodine fumarate

SMILES: Cc1noc([C@@]23CNC[C@@H]2C3)n1 [Compound 1, 1-(3-methyl-[1,2,4]oxadiazol-5-yl)-(1R,5R)-3-aza-bicyclo[3.1.0]hexane]
- AUC(0-inf) (in vivo; 0.3 mg/kg): 212 ng·h/mL
- AUC(0-t) (in vivo; 0.3 mg/kg): 208 ng·h/mL
- Cmax (in vivo; 0.3 mg/kg): 216 ng/mL
- Tmax (in vivo; 0.3 mg/kg): 0.417 h
- half-life (in vivo; 0.3 mg/kg): 2.82 h
- AUC(0-inf) (in vivo; 1 mg/kg): 988 ng·h/mL
- AUC(0-t) (in vivo; 1 mg/kg): 982 ng·h/mL
- Cmax (in vivo; 1 mg/kg): 686 ng/mL
- Tmax (in vivo; 1 mg/kg): 1 h
- half-life (in vivo; 1 mg/kg): 2.28 h
- effect on hyperdopaminergic-mediated motor behavior ([1]; 0.3 and 1 mg/kg IP, d-amphetamine-treated mice): reverses hyperdopaminergic-mediated motor behavior in a dose-dependent manner
- average (mean) centimeters traveled over 30 minutes ([1]; Compound 1 0.3 mg/kg IP co-administered with d-amphetamine 3 mg/kg IP, p<0.5): 5141 cm
- average (mean) centimeters traveled over 30 minutes ([1]; Compound 1 1.0 mg/kg IP co-administered with d-amphetamine 3 mg/kg IP, p <0.001): 2008 cm
- change in salivation with dose (salivation): increase in salivation was observed with increasing dose
- anti-parkinsonian benefit of L-DOPA and overall duration of on-time (MPTP-Induced Dyskinesia; Compound 1 1 mg/kg PO with high-dose L-dopa): no reduction
- decrease in the duration of ‘bad’ on-time (on-time associated with disabling dyskinesia) (MPTP-Induced Dyskinesia; [4]): 41%
- increase in the duration of ‘good’ on-time (lack of, or only non-disabling dyskinesia) (MPTP-Induced Dyskinesia; [4]): 143%
- reduction of median levels of dyskinesia during the 0-1 h period (MPTP-Induced Dyskinesia; Compound 1 1 mg/kg PO with high-dose L-dopa, vs vehicle, P<0.001): 91%
- reduction of median levels of dyskinesia cumulated over the 0-2 h period (MPTP-Induced Dyskinesia; Compound 1 1 mg/kg PO with high-dose L-dopa, vs vehicle, P=0.0156): 42%
- median levels of dyskinesia during the 0-1 h period (MPTP-Induced Dyskinesia; Compound 1 1 mg/kg PO with high-dose L-dopa, vehicle 11): 1
- median levels of dyskinesia cumulated over the 0-2 h period (MPTP-Induced Dyskinesia; Compound 1 1 mg/kg PO with high-dose L-dopa, vehicle 33): 19
- animals with a robust reduction in LID (MPTP-Induced Dyskinesia; Compound 1 1 mg/kg PO, seven animals in final analyses): six of the seven animals
- increase in exposure of Compound 1 following co-administration of fesoterodine fumarate, AUC0-inf [2, 5]: 29.0%
- increase in exposure of Compound 1 following co-administration of fesoterodine fumarate, AUC0-t [2, 5]: 30.0%
- increase in exposure of Compound 1 following co-administration of fesoterodine fumarate, Cmax ([2]; Group 2, 40 mg Compound 1, 8 mg fesoterodine fumarate, p-value: 0.0347): 50.0%
- compound 1 concentration in CSF at 1hour post-dose, mean ([2]; human, in vivo, 1 h): 50.30 ng/mL
- mean compound 1 concentration in CSF at 1 hour post-dose ([2]; human, in vivo, 1 h): 56.96 ng/mL
- Tmax ([2]; human, in vivo, single oral doses, healthy subjects, read-out: median tmax): 0.65 to 1.17 h
- concentration at 1 h [3]: 608 ng/mL
